Measurements taken from US8975246B2, “Bile acid or bile salt fatty acid conjugates” (Galmed Research and Development Ltd., priority 2001, dated 2015).

What was measured:
Assay type in all cases: in vivo
[1] = system: Golden Syrian Male Hamsters; assay: Fasting blood glucose, hamsters on fatty liver diet (NIDDM model); settings: BAFAC 150 mg/kg/day by gavage, 3 weeks, vs saline
Experimental: The effects of BAFACs on fasting blood glucose were tested in 3 animal species: Hamsters, Rats and Mice. The animals were kept on regular or high fat diets (as specified). In each group half of the animals received a daily BAFAC dose (150 mg/kg) dispersed in 0.5 ml of saline by gavage. The other half received similarly, by gavage, an equal volume of saline only. All animals were kept on a 12 hr day/night cycle at 22° C. throughout the experiment. They had access to water ad libidum.
Golden Syrian male hamsters 4 weeks old (90-100 gm) were fed a fatty liver diet consisting of cholesterol (1%), palmitic acid (1.2%), butter (6%), lard (10%), and corn oil (2%) added (w/w) to their regular diet. Blood glucose was measured at sacrifice in the fasting state after 3 weeks of the trial. There were 5 control and 5 test animals.
The hamsters and rats on the high fat diets developed fatty liver (confirmed by chemical measurement of liver fat), a high fasting blood glucose, and represented models of NIDDM.
ICR male mice, 4 weeks old (approx. 20 gm) were fed a regular diet. Streptozotocin 200 mg/kg was injected i.p. on the first day of the experiment. (This induced damage to the islet cells of the pancreas and simulated IDDM). Fasting blood glucose was obtained from sacrificed animals after 16 days of the trial. There were 3 groups of 7 animals each. Controls—regular diet only. […]

[2] = system: Golden Syrian Male Hamsters; assay: Fatty liver histologic score, hamsters; settings: Lithogenic diet 1 + BAFAC 150 mg/kg/day, 10 W
Experimental: (§1) The presence of fatty liver was evaluated by a pathologist unaware of the treatments, scoring coded slides in a blinded manner.
(§2) The scoring system was as follows:
Golden Syrian Male Hamsters (Anilab, Rehovot, Israel) […] weighing 90-110 gm were used. They were fed a lithogenic diet (No 1). Half of the animals were given in addition 150 mg/kg/day of 3β-arachidylamido-7α,12α-dihydroxy-5β-cholan-24-oic acid. The compound was given suspended in saline, by intragastric gavage. Control animals were similarly given saline only. After 10 weeks the animals were anesthetized and sacrificed. The liver and other organs were removed and placed in formaline for histologic examination.

C57 male inbred mice = assay: Fatty liver histologic score, mice on Western diet; settings: Western diet + BAFAC 150 mg/kg/day, 4 W
Experimental: as §1, §2
C57 male inbred mice (Jackson Lab., Maine, USA) 4-6 weeks old weighing 20-25 gm were used. They were fed a “Western” diet (George et. al. Circulation 2000, 102:1822-27) containing cholesterol 1.5 gm/kg and Fat 42%, Carbohydrates 43%, and Protein 15% (as % of calories). Half were given in addition 150 mg/kg/day of 3β-arachidylamido-7α,12α-dihydroxy-5β-cholan-24-oic acid suspended in saline by intragastric gavage. The other half were similarly given saline only. After 4 weeks the animals were anesthetized and sacrificed. Liver and other organs were removed and placed in formaline prior to histologic examination

human patients [3] = assay: Human study: change in HOMA (insulin resistance); settings: for Change in HOMA from Baseline, Max / Change in HOMA from Baseline, Mean / Change in HOMA from Baseline, Median / Change in HOMA from Baseline, Min: 3 months
Experimental: (§3) The effects of BAFACs on disorders associated with Fatty liver, insulin resistance and altered glucose metabolism were tested on 60 human patients. Experiments were subdivided to 2 dosage regimens: Aramchol 300 mg daily (high dose) and 100 mg daily (low dose) respectively for a total period time of 3 months. The Aramchol:placebo ratio is of 2:1 for the low dose arm, and 1:1 for the high dose arms.
(§4) The study period included a 3 month treatment period with Aramchol low dose, or Aramchol high dose, or placebo, and a one month follow-up period. Aramchol was given daily orally. During the treatment period, all patients attended periodic […] (at first month) and subsequently monthly study-center visits in order to assess safety and efficacy of the treatment.
(§5) The results are shown using two known in the art principle statistical evaluation on, Intention-To-Treat (ITT) and Per Protocol (PP) populations. The ITT principle asserts that the effect of a treatment policy can be best assessed by evaluation on the basis of the intention to treat a subject (i.e. the planned treatment regimen) rather than the actual treatment given. It has the consequence that subjects allocated to a treatment group should be followed up, assessed and analyzed as members of that group irrespective of their compliance to the planned course of treatment. […] Compliance covers such considerations as exposure to treatment, availability of measurements and absence of major protocol violations.
Homeostatic model assessment (HOMA) is a method used to quantify insulin resistance and beta-cell function. The Dunnett method is used for multiple comparisons with a control group, and adjusts the data by age, gender, diagnosis, baseline HbA1c and baseline weight.

human patients [4] = assay: Human study: change in weight; design: Change in Weight, Mean / Change in Weight, Median / Change in Weight, Max: unit not given here; settings: for Change in Weight, Max / Change in Weight, Mean / Change in Weight, Median / Change in Weight, Min: 3 months
Experimental: as §3, §4, §5

human patients [5] = assay: Human study: safety; settings: Aramchol at 300 and 100 mg/d oral, 3 months, vs placebo
Experimental: as §3, §4
No changes in adverse events or in vital signs were observed between the groups.

[6] = score 0 (no fatty liver) to 4 (severe, >50% of liver surface)

CCCCCCCCCCCCCCCCCCCC(=O)N[C@H]1CC[C@@]2(C)[C@@H](C1)C[C@@H](O)[C@@H]1[C@@H]2C[C@H](O)[C@]2(C)[C@@H]([C@H](C)CCC(=O)O)CC[C@@H]12 [Aramchol, 3β-arachidylamido-7α,12α-dihydroxy-5β-cholan-24-oic acid]
fasting blood glucose [1]: markedly reduced
Fatty Liver Scores: number of animals with score 0 ([2]; n 7, 0 - No fatty liver): 6
Fatty Liver Scores: number of animals with score 2 ([2]; n 7, 2 - Mild fatty liver): 1
Fatty Liver Score, mean [2, 6]: 0.28
Fatty Liver Scores: number of animals with score 0 (C57 male inbred mice; n 14, 0 - No fatty liver): 12
Fatty Liver Scores: number of animals with score 1 (C57 male inbred mice; n 14, 1 - Minimal fatty liver): 1
Fatty Liver Scores: number of animals with score 4 (C57 male inbred mice; n 14, 4 - Severe fatty liver): 1
Fatty Liver Score, mean (C57 male inbred mice; [6]): 0.35
Change in HOMA from Baseline, Max (human patients [3]; Aramchol 100 mg/d oral, ITT): 11.70
Change in HOMA from Baseline, Mean (human patients [3]; Aramchol 100 mg/d oral, ITT): 1.25
Change in HOMA from Baseline, Median (human patients [3]; Aramchol 100 mg/d oral, ITT): 0.20
Change in HOMA from Baseline, Min (human patients [3]; Aramchol 100 mg/d oral, ITT): −2.00
Change in HOMA from Baseline, Max (human patients [3]; Aramchol 100 mg/d oral, PP): 11.70
Change in HOMA from Baseline, Mean (human patients [3]; Aramchol 100 mg/d oral, PP): 1.13
Change in HOMA from Baseline, Median (human patients [3]; Aramchol 100 mg/d oral, PP): 0.20
Change in HOMA from Baseline, Min (human patients [3]; Aramchol 100 mg/d oral, PP): −2.00
Change in HOMA from Baseline, Max (human patients [3]; Aramchol 300 mg/d oral, ITT): 2.80
Change in HOMA from Baseline, Mean (human patients [3]; Aramchol 300 mg/d oral, ITT): −7.74
Change in HOMA from Baseline, Median (human patients [3]; Aramchol 300 mg/d oral, ITT): 0.20
Change in HOMA from Baseline, Min (human patients [3]; Aramchol 300 mg/d oral, ITT): −139.60
Change in HOMA from Baseline, Max (human patients [3]; Aramchol 300 mg/d oral, PP): 2.80
Change in HOMA from Baseline, Mean (human patients [3]; Aramchol 300 mg/d oral, PP): −7.74
Change in HOMA from Baseline, Median (human patients [3]; Aramchol 300 mg/d oral, PP): 0.20
Change in HOMA from Baseline, Min (human patients [3]; Aramchol 300 mg/d oral, PP): −139.60
insulin resistance (in words) (human patients [3]; Aramchol 300 mg/d, tested subjects, Tables 3 and 4): reduces insulin resistance
Change in Weight, Max (human patients [4]; Aramchol 100 mg/d oral, ITT): 4.00
Change in Weight, Mean (human patients [4]; Aramchol 100 mg/d oral, ITT): 0.18
Change in Weight, Median (human patients [4]; Aramchol 100 mg/d oral, ITT): 0.00
Change in Weight, Min (human patients [4]; Aramchol 100 mg/d oral, ITT): −5.00
Change in Weight, Max (human patients [4]; Aramchol 100 mg/d oral, PP): 4.00
Change in Weight, Mean (human patients [4]; Aramchol 100 mg/d oral, PP): 0.08
Change in Weight, Median (human patients [4]; Aramchol 100 mg/d oral, PP): 0.00
Change in Weight, Min (human patients [4]; Aramchol 100 mg/d oral, PP): −5.00
Change in Weight, Max (human patients [4]; Aramchol 300 mg/d oral, ITT): 3.50
Change in Weight, Mean (human patients [4]; Aramchol 300 mg/d oral, ITT): −1.15
Change in Weight, Median (human patients [4]; Aramchol 300 mg/d oral, ITT): −1.25
Change in Weight, Min (human patients [4]; Aramchol 300 mg/d oral, ITT): −4.40
Change in Weight, Max (human patients [4]; Aramchol 300 mg/d oral, PP): 3.50
Change in Weight, Mean (human patients [4]; Aramchol 300 mg/d oral, PP): −1.15
Change in Weight, Median (human patients [4]; Aramchol 300 mg/d oral, PP): −1.25
Change in Weight, Min (human patients [4]; Aramchol 300 mg/d oral, PP): −4.40
body weight (in words) (human patients [4]; Aramchol 300 mg/d, tested subjects, Tables 9 and 10): reduces body weight
Safety (adverse events, vital signs) (human patients [5]): not associated with any safety concerns
